# Results as given in US4749701A, “Aminostyryl compound, leukotriene antagonistic composition containing the same as effective ingredients and method of antagonizing SRS by employing the same” (Mitsubishi Chemical Industries Limited, priority 1986, dated 1988).
# Counter-ions that a name gives are not always drawn.
# Experiment: Acute toxicity test
# Details: mouse, in vivo
# Experimental: With 4 to 5 ddy-strain male mice of 6 weeks old as one group, the compound of the present invention was orally administered as a suspension in 1% tragacanth solution, and observation was conducted for 7 days and the number of dead mice was examined to obtain the results shown in Table 3.
SMILES,LD50 at 168 h (po) [mg/kg],"LD50 at 168 h (oral, suspension in 1% tragacanth, male ddy mice, 6 weeks old, observed for 7 days) [mg/kg]"
"O=C(O)CCC(=O)Nc1cccc(/C=C/c2ccc3ccccc3n2)c1 [compound 32, 2-[trans-3-(3-carboxypropanamide)styryl]quinoline.sodium salt]",> 1000,–
O=C(O)C=CC(=O)Nc1cccc(C=Cc2ccc3ccccc3n2)c1 [compound 45],–,> 1000
